ChEMBL document CHEMBL3045698, “Structure and synthesis of a potent glutamate receptor antagonist in wasp venom” (Proc Natl Acad Sci U S A, 1988)
Activity calls are given as the source filed them. No cut-off for these calls is given here.

Experiments:
Schistocerca gregaria [1] = test: Inhibition of quisqualate-sensitive glutamate receptor in Schistocerca gregaria (desert locust) muscle assessed as reduction in neurally-evoked teitch contraction of locust metathoracic retractor unguis muscle at 0.1 Hz to 0.6 Hz stimulation frequency at 25 uM
Schistocerca gregaria [2] = test: Inhibition of quisqualate-sensitive glutamate receptor in Schistocerca gregaria (desert locust) muscle assessed as reduction in glutamate-evoked teitch contraction of locust metathoracic retractor unguis muscle at 0.1 Hz to 0.6 Hz stimulation frequency at 10 uM

Structure (SMILES) | inhibition (Schistocerca gregaria [1]) | inhibition (Schistocerca gregaria [2])
CCCC(=O)N[C@@H](Cc1ccc(O)cc1)C(=O)NCCCCNCCCNCCCN | Active | > 90%
CCCC(=O)N[C@@H](Cc1ccc(O)cc1)C(=O)NCCCNCCCNCCCCN | Active | –
CCCC(=O)N[C@@H](Cc1ccc(O)cc1)C(=O)NCCCNCCCCNCCCN | Active | –
